The target of one data set is recombinant human GALK1 (Homo sapiens, UniProt P51570). Briefly: hGALK1 biochemical activity assay (Kinase-Glo Plus, ATP depletion). Put shortly:
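Recombinant human or mouse GALK1 (5 nM, with 100 μM galactose, in the added enzyme solution) was run with ATP (35 μM in the substrate solution) in HEPES pH 8.0 buffer. Compounds were tested at 11 1/3-step concentrations from 57.4 μM to 0.97 nM. After 1 h at room temperature, remaining ATP was read by Kinase-Glo Plus luminescence.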

The target of the next data set is T1, hGALK1m (Homo sapiens, UniProt P51570, E253A/K252A).
T1 construct: made in house; host or cells: E. coli HMS174
T1 sequence (P51570 whole entry K252A/E253A): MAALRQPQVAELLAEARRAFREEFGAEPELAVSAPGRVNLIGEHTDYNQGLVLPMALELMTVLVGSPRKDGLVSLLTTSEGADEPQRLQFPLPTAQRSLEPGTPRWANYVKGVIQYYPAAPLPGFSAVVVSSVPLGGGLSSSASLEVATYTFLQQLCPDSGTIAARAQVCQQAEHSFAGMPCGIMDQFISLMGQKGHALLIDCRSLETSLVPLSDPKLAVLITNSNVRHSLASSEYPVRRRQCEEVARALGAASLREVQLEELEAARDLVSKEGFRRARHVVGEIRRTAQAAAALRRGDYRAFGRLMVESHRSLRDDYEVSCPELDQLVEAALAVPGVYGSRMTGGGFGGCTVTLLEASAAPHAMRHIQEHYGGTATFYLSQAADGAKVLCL
As to the kind of experiment: in vitro hGALK1 activity assay of the structure-based optimisation (Example 12, Tables 17-20). It counts as biochemical. How it is done:
In vitro hGALK1 activity assays were performed as previously described. Liu et al., Bioorg. Med. Chem. Lett. 25(3): 721-727 (2015), which is incorporated by reference herein for the specific teachings thereof. The biochemical assay was performed by coupling the activity of recombinant human or mouse GALK1 to the Kinase-Glo Plus luminescent ATP detection kit, using ATP depletion as a measure of GALK1 turnover. Specifically, three μL/well of ATP substrate solution (35 μM ATP) in assay buffer (20 mM HEPES pH 8.0, 5 mM MgCl2, 60 mM NaCl, 1 mM DTT, 0.01% BSA final concentration) was dispensed into 1536-well assay plates (Greiner, white solid-bottom medium-binding plates). Aliquots of compound (23 nL solubilized in DMSO) were transferred to the assay plates using a Kalypsys 1536-well pintool such that 11 concentrations with 1/3 dilutions ranging from 57.4 μM-0.97 nM are tested. One μL/well of GALK-galactose solution (5 nM GALK1, 100 μM galactose) in assay buffer was then added, yielding a final reaction volume of 4 μL/well. Following a 1-hour room temperature incubation, 4 μL of Kinase-Glo Plus detection reagent was added to provide an ATP-dependent luminescent readout (final assay volume: 8 μL/well). Luminescence was detected using a ViewLux plate reader (PerkinElmer) after a 10-minute incubation, using a 1 second exposure time and 2× binning.
The in vitro hGALK1 activity assay was performed as previously described. Liu et al., Bioorg. Med. Chem. Lett. 25(3): 721-727 (2015). For the measurement of cellular Gal-1P reduction, compounds at different concentrations were added to cultured patient fibroblast at 80% confluency. After incubating the compounds for 16 hours, 10 mM galactose was added to the culture. After another 4 hours, cells were washed with cold PBS buffer 3× and harvested for gal-1P measurement, according to the previously published method. Liu et al., Bioorg. Med. Chem. Lett. 25(3): 721-727 (2015).

The next data set concerns the target recombinant mouse GALK1 (Mus musculus, UniProt Q9R0N0). As to the kind of experiment: mGALK1 biochemical activity assay (Kinase-Glo Plus, ATP depletion). Summed up:
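Recombinant GALK1 (5 nM) with 100 μM galactose; GALK1 turnover read as ATP depletion by Kinase-Glo Plus luminescence. Reaction ran 1 h at room temperature before detection reagent was added.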

Another data set can be described thus: PAMPA permeability. The conditions noted are these: PAMPA; for Papp: ADME P: PAMPA permeability (class), Tables 17-19, class probably colour-coded, colour lost.
Data set [1] can be described thus: aqueous kinetic solubility.
Data set [2] can be described thus: rat microsomal stability (RLM). The settings on record: for half-life: rat, rat liver microsomes.
The mark [3] stands for this setting: Tables 2-15, 35 μM ATP, 100 μM galactose, 1 h, bracketed figure after some values (e.g. −1.2) is undefined and not reported, read-out: hGALK IC50.
Where [4] appears, read: recombinant human GALK1, Kinase-Glo Plus ATP depletion, read-out: hGALK.
The mark [5] stands for this setting: Tables 18-19, read-out: Max Response (%).
Where [6] appears, read: Tables 18-20 and text of Example 12.
Where [7] appears, read: Tables 2-15, 35 μM ATP, 100 μM galactose, 1 h, bracketed figure after some values is undefined and not reported, read-out: mGALK IC50.
Where [8] appears, read: recombinant mouse GALK1, Kinase-Glo Plus ATP depletion, read-out: mGALK.
The mark [9] stands for this setting: Tables 18-19 and text of Example 12.

The structures appear in SMILES notation. Read-outs that look alike come from different tables or passages of the source.

recombinant mouse GALK1, sequence (Q9R0N0 whole entry): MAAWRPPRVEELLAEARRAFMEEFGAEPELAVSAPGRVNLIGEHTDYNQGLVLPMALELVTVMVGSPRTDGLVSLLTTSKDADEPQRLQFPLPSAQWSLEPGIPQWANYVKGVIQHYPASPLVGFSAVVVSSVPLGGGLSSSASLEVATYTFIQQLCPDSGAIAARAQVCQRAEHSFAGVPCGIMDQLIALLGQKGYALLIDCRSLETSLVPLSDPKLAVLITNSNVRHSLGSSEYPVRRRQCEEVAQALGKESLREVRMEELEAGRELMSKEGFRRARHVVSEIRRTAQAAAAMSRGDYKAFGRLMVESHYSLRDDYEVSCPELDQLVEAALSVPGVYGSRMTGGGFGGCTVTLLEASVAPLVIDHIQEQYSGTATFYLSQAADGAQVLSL
recombinant human GALK1, sequence (P51570 whole entry): as the sequence (P51570 whole entry K252A/E253A) above, with A252K, A253E counted along it

As for `COc1ccc(C2N=C(Nc3nc4ccc(F)cc4o3)NC(C)=C2C(=O)Nc2cc(C(=O)O)ccn2)c(Cl)c1` (racemic) [Compound 46, 2-(4-(2-chloro-4-methoxyphenyl)-2-((6-fluorobenzo[d]oxazol-2-yl)amino)-6-methyl-1,4-dihydropyrimidine-5-carboxamido)isonicotinic acid], the IC50 at recombinant human GALK1 (setting [3]) worked out at 0.43 µM; on recombinant human GALK1 (setting [4]), 0.43 µM; at hGALK1m (setting [6]) it was 0.3 µM; at recombinant mouse GALK1 (setting [7]), 3.06 µM; on recombinant mouse GALK1 (setting [8]) it was 3.06 µM. At hGALK1m, the “change of potency versus parent compound (in words)” value is reported as “little effect”. Besides, the Emax on hGALK1m (setting [5]) amounted to 100%. This molecule also had a Papp in “PAMPA permeability” of less than 10 ×10⁻⁶ cm/s. The “Sol.” value in data set [1] worked out at 8.3 µg/mL. Also, in data set [2] (microsomal half-life), the “Metab. Stabil. (m)” value was more than 30 m. For the same molecule, the half-life in data set [2] is less than 10 min.

`CC1=C(C(=O)Nc2cc(C(=O)O)ccn2)C(c2ccccc2Cl)N=C(Nc2nc3c(F)cccc3o2)N1` (centres unmarked) [Compound 8, 2-(4-(2-chlorophenyl)-6-methyl-2-((4-fluorobenzo[d]oxazol-2-yl)amino)-1,4-dihydropyrimidine-5-carboxamido)isonicotinic acid]: the IC50 on recombinant human GALK1 (setting [4]) worked out at 3.85 µM; at hGALK1m (setting [9]), 3.3 µM; at recombinant mouse GALK1 (setting [7]) it was 21.7 µM; at recombinant mouse GALK1 (setting [8]), 21.7 µM. Besides, the Emax on hGALK1m (setting [5]) amounted to 100%.

Regarding `CC1=C(C(=O)Nc2cc(C(=O)O)ccn2)C(c2ccccc2Cl)N=C(Nc2nc3cc(F)ccc3o2)N1` (centres unmarked) [Compound 13, 2-(4-(2-chlorophenyl)-2-((5-fluorobenzo[d]oxazol-2-yl)amino)-6-methyl-1,4-dihydropyrimidine-5-carboxamido)isonicotinic acid], the IC50 at recombinant human GALK1 (setting [3]) is 3.43 µM; against hGALK1m (setting [9]) it was 3.6 µM; on recombinant mouse GALK1 (setting [7]) it was 17.2 µM; on recombinant mouse GALK1 (setting [8]), 17.2 µM. For the same molecule, the Emax at hGALK1m (setting [5]) was found to be 100%. In addition, the apparent permeability coefficient (Papp) in “PAMPA permeability” is less than 10 ×10⁻⁶ cm/s. This molecule also showed a half-life in data set [2] of less than 10 min.

In the case of `CC1=C(C(=O)Nc2cc(C(=O)O)ccn2)C(c2cccc(F)c2Cl)N=C(Nc2nc3ccc(F)cc3o2)N1` (centres unmarked) [Compound 48, 2-(4-(2-chloro-3-fluorophenyl)-2-((6-fluorobenzo[d]oxazol-2-yl)amino)-6-methyl-1,4-dihydropyrimidine-5-carboxamido)isonicotinic acid], the IC50 on recombinant human GALK1 (setting [3]) was 4.85 µM; at recombinant human GALK1 (setting [4]) it was 4.85 µM; against hGALK1m (setting [9]), 1.8 µM; on recombinant mouse GALK1 (setting [7]) it was 15.3 µM; at recombinant mouse GALK1 (setting [8]), 15.3 µM. In addition, the “change of potency versus parent compound (in words)” value at hGALK1m is recorded as “compromised the potency”. The Emax at hGALK1m (setting [5]) came out at 100%. The Papp in the data set “PAMPA permeability” was less than 10 ×10⁻⁶ cm/s. The same molecule registered a half-life in data set [2] of less than 10 min.

Turning to `CC1=C(C(=O)Nc2ncc(C(=O)O)s2)C(c2ccccc2Cl)N=C(Nc2nc3ccccc3o2)N1` (centres unmarked) [Compound 199, 2-(2-(benzo[d]oxazol-2-ylamino)-4-(2-chlorophenyl)-6-methyl-1,4-dihydropyrimidine-5-carboxamido)thiazole-5-carboxylic acid], the IC50 at recombinant human GALK1 (setting [3]) amounted to 1.72 µM; at recombinant human GALK1 (setting [4]), 1.72 µM; at hGALK1m (Table 17, amide group optimization, no unit in table), 1.7 µM. Also, on hGALK1m (1 h, Table 17, read-out: Efficacy), the Emax is 91%. Besides, the “Perm. (1 × 10^−6 cm/sec)” value in “PAMPA permeability” is <1 1 × 10^−6 cm/sec. The molecule also came in with a Papp in “PAMPA permeability” of less than 10 ×10⁻⁶ cm/s. Moreover, the “Sol.” value in data set [1] (aqueous kinetic solubility) was more than 75 µg/mL. Moreover, the “Metab. Stabil. (m)” value in data set [2] (microsomal stability half-life) was more than 30 m. Further, the half-life in data set [2] is less than 10 min.

At hGALK1m (setting [9]), `CC1=C(C(=O)Nc2cc(C(=O)O)ccn2)C(c2ccccc2Cl)N=C(Nc2nc3ccccc3o2)N1` (stereo not drawn) [R-enantiomer of Compound 194] showed an IC50 of 15 µM.

`CC1=C(C(=O)NCc2cnn(C)c2)[C@@H](c2ccc(C)cc2Cl)N=C(Nc2nc3cccc(N)c3o2)N1` [S-enantiomer of Compound 83]: at hGALK1m (setting [6]), the IC50 turned out to be 0.029 µM.

For the molecule `CC1=C(C(=O)Nc2cc(C(=O)O)ccn2)[C@@H](c2ccccc2Cl)N=C(Nc2nc3ccccc3o2)N1` [S-enantiomer of Compound 194], at hGALK1m (setting [6]), the IC50 was 0.3 µM.

The values above are taken from US20230158025A1 (UNIVERSITY OF UTAH RESEARCH FOUNDATION, priority 2020, published 2023).
